Experimental data: paper PMC9518264, “Design and synthesis of novel quinazolinone-based derivatives as EGFR inhibitors with antitumor activity” (Journal of Enzyme Inhibition and Medicinal Chemistry, 2022)

What was measured:
[1] = tested on: TK-10; assay: cells; type: cell-based; details: Homo sapiens, TK-10, read-out: growth inhibition % (GI%)
[2] = tested on: 786-0; assay: cells; type: cell-based; details: Homo sapiens, 786-0, read-out: growth inhibition % (GI%)
[3] = tested on: HOP-62; assay: cells; type: cell-based; details: Homo sapiens, HOP-62, read-out: growth inhibition % (GI%)
[4] = tested on: A549/ATCC; assay: cells; type: cell-based; details: Homo sapiens, A549, read-out: growth inhibition % (GI%)
[5] = tested on: SNB-19; assay: cells; type: cell-based; details: Homo sapiens, SNB-19, read-out: growth inhibition % (GI%)
[6] = tested on: NCI-H522; assay: cells; type: cell-based; details: Homo sapiens, NCI-H522, read-out: growth inhibition % (GI%)
[7] = tested on: NCI-H460; assay: cells; type: cell-based; details: Homo sapiens, NCI-H460, read-out: growth inhibition % (GI%)
[8] = tested on: SK-OV-3; assay: cells; type: cell-based; details: Homo sapiens, SK-OV-3, read-out: growth inhibition % (GI%)
[9] = tested on: MCF7; assay: cells; type: cell-based; details: Homo sapiens, MCF7, read-out: growth inhibition % (GI%)
[10] = tested on: SR; assay: cells; type: cell-based; details: Homo sapiens, read-out: growth inhibition % (GI%)
[11] = tested on: U251; assay: cells; type: cell-based; details: Homo sapiens, U-251, read-out: growth inhibition % (GI%)
[12] = tested on: NCI-H226; assay: cells; type: cell-based; details: Homo sapiens, NCI-H226, read-out: growth inhibition % (GI%)
[13] = tested on: MDA-MB-231/ATCC; assay: NCI 60 cell line antiproliferative screening (SRB), Breast cancer; type: cell-based; details: Homo sapiens, MDA-MB-231, read-out: growth inhibition % (GI%)
[14] = tested on: HCT-15; assay: cells; type: cell-based; details: Homo sapiens, HCT-15, read-out: growth inhibition % (GI%)
[15] = tested on: OVCAR-3; assay: NCI 60 cell line antiproliferative screening (SRB), Ovarian cancer; details: Homo sapiens, OVCAR-3, read-out: growth inhibition % (GI%)
[16] = tested on: SK-MEL-2; assay: cells; type: cell-based; details: Homo sapiens, SK-MEL-2, read-out: growth inhibition % (GI%)
[17] = tested on: MOLT-4; assay: cells; type: cell-based; details: Homo sapiens, MOLT-4, read-out: growth inhibition % (GI%)
[18] = tested on: LOX IMIV; assay: cells; type: cell-based; details: Homo sapiens, 60 cell, read-out: growth inhibition % (GI%)
[19] = tested on: BT-549; assay: cells; type: cell-based; details: Homo sapiens, BT-549, read-out: growth inhibition % (GI%)
[20] = tested on: OVCAR-5; assay: cells; type: cell-based; details: Homo sapiens, OVCAR-5, read-out: growth inhibition % (GI%)
[21] = tested on: HS 578T; assay: cells; type: cell-based; details: Homo sapiens, Hs-578T, read-out: growth inhibition % (GI%)
[22] = tested on: HT29; assay: cells; type: cell-based; details: Homo sapiens, HT-29, read-out: growth inhibition % (GI%)
[23] = tested on: RPMI-8226; assay: cells; type: cell-based; details: Homo sapiens, RPMI-8226, read-out: growth inhibition % (GI%)
[24] = tested on: OVCAR-4; assay: cells; type: cell-based; details: Homo sapiens, OVCAR-4, read-out: growth inhibition % (GI%)
[25] = tested on: SF-539; assay: cells; type: cell-based; details: Homo sapiens, SF-539, read-out: growth inhibition % (GI%)
[26] = tested on: MDA-MB-468; assay: NCI 60 cell line antiproliferative screening (SRB), Breast cancer; details: Homo sapiens, MDA-MB-468, read-out: growth inhibition % (GI%)
[27] = tested on: SK-MEL-28; assay: cells; type: cell-based; details: Homo sapiens, SK-MEL-28, read-out: growth inhibition % (GI%)
[28] = tested on: SNB-75; assay: cells; type: cell-based; details: Homo sapiens, SNB-75, read-out: growth inhibition % (GI%)
[29] = tested on: DU-145; assay: cells; type: cell-based; details: Homo sapiens, DU-145, read-out: growth inhibition % (GI%)
[30] = tested on: NCI/ADR-RES; assay: cells; type: cell-based; details: Homo sapiens, read-out: growth inhibition % (GI%)
[31] = tested on: HCC-2998; assay: cells; type: cell-based; details: Homo sapiens, HCC 2998, read-out: growth inhibition % (GI%)
[32] = tested on: HOP-92; assay: cells; type: cell-based; details: Homo sapiens, HOP-92, read-out: growth inhibition % (GI%)
[33] = tested on: panel of 60 tumour cell lines; assay: NCI 60 cell line antiproliferative screening (SRB), whole panel or subpanels (means, ranges, words); type: cell-based, human; details: 10 μM
[34] = tested on: HCT-116; assay: cells; type: cell-based; details: Homo sapiens, HCT-116, read-out: growth inhibition % (GI%)
[35] = tested on: PC-3; assay: cells; type: cell-based; details: Homo sapiens, PC-3, read-out: growth inhibition % (GI%)
[36] = tested on: UACC-62; assay: cells; type: cell-based; details: Homo sapiens, UACC-62, read-out: growth inhibition % (GI%)
[37] = tested on: MDA-MB-435; assay: cells; type: cell-based; details: Homo sapiens, MDA-MB-435, read-out: growth inhibition % (GI%)
[38] = tested on: T-47D; assay: cells; type: cell-based; details: Homo sapiens, T47D, read-out: growth inhibition % (GI%)
[39] = tested on: A498; assay: cells; type: cell-based; details: Homo sapiens, A498, read-out: growth inhibition % (GI%)
[40] = tested on: KM12; assay: cells; type: cell-based; details: Homo sapiens, KM12, read-out: growth inhibition % (GI%)
[41] = tested on: EKVX; assay: cells; type: cell-based; details: Homo sapiens, read-out: growth inhibition % (GI%)
[42] = tested on: HL-60(TB); assay: cells; type: cell-based; details: Homo sapiens, HL-60, read-out: growth inhibition % (GI%)
[43] = tested on: NCI-H322M; assay: cells; type: cell-based; details: Homo sapiens, read-out: growth inhibition % (GI%)
[44] = tested on: COLO-205; assay: cells; type: cell-based; details: Homo sapiens, COLO 205, read-out: growth inhibition % (GI%)
[45] = tested on: UACC-257; assay: cells; type: cell-based; details: Homo sapiens, UACC-257, read-out: growth inhibition % (GI%)
[46] = tested on: IGROV1; assay: cells; type: cell-based; details: Homo sapiens, IGROV-1, read-out: growth inhibition % (GI%)

In the case of `O=C(CSc1nc2ccccc2c(=O)n1-c1ccccc1)NN=Cc1ccc(Oc2ccc(Cl)cc2)cc1` [6a, N'-(4–(4-chlorophenoxy)benzylidene)-2-((4-oxo-3-phenyl-3,4-dihydroquinazolin-2-yl)thio)acetohydrazide], the inhibition at 10 µM [1] is reported as under 15%, the inhibition at 10 µM [2] is reported as 46.8% and the inhibition at 10 µM [3] is reported as 40.9%. For the same compound, the inhibition at 10 µM [4] was 58.3%, the inhibition at 10 µM [5] was 66.8% and the inhibition at 10 µM [6] was 50.4%. For the same compound, the inhibition at 10 µM [7] was 67.9%, the inhibition at 10 µM [8] was 16.8% and the inhibition at 10 µM [9] was 35.5%. The inhibition at 10 µM [10] was 29.7%, the inhibition at 10 µM [11] was 84.8% and the inhibition at 10 µM [12] was 27.9%. For the same compound, the inhibition at 10 µM [13] was 50.8%, the inhibition at 10 µM [14] was 39.2% and the inhibition at 10 µM [15] was under 15%. The inhibition at 10 µM [16] was 13.1%, the inhibition at 10 µM [17] was 41.3% and the inhibition at 10 µM [18] was 86%. It also gave an inhibition at 10 µM [19] of 30.1%, an inhibition at 10 µM [20] of 18.6% and an inhibition at 10 µM [21] of 41.1%. For the same compound, the inhibition at 10 µM [22] was 40.9%, the inhibition at 10 µM [23] was 26.8% and the inhibition at 10 µM [24] was 26.2%. It also gave an inhibition at 10 µM [25] of 31.5%, an inhibition at 10 µM [26] of 28.4% and an inhibition at 10 µM [27] of 37.6%. The inhibition at 10 µM [28] was 39.9%, the inhibition at 10 µM [29] was 61.6% and the inhibition at 10 µM [30] was 47.3%. The inhibition at 10 µM [31] was under 15%, the inhibition at 10 µM [32] was 33.3% and the “GI% range over a subset of cell lines” value ([33]; subset of cell lines whose number is stated in the sentence) was 67.86% to 30.09. It also gave an inhibition at 10 µM ([33]; Homo sapiens, 60 cell, mean over the cell line panel, read-out: Mean growth inhibition % (mean GI%)) of 37.3%, an inhibition at 10 µM [34] of 94.4% and an inhibition at 10 µM [35] of 41.3%. For the same compound, the inhibition at 10 µM [36] was 33.4%, the inhibition at 10 µM [37] was 15.4% and the inhibition at 10 µM [38] was 17.5%. For the same compound, the inhibition at 10 µM [39] was 34.3%, the inhibition at 10 µM [40] was 16.3% and the inhibition at 10 µM [41] was 41%. For the same compound, the inhibition at 10 µM [42] was under 15%, the inhibition at 10 µM [43] was 15.5% and the inhibition at 10 µM [44] was 50.8%. For the same compound, the inhibition at 10 µM [45] was under 15% and the inhibition at 10 µM [46] was 50.9%.
